pEC50, pKi: −log10 of the molar value. *1 amine or outer side, *2 acyl side, *3 side chain or, on linkers, in order; H or OH if unused. Where a SMILES comes first, the peptide text is derived from it. Side-chain parts run from the residue outwards. The star is where a group is joined. C18 diacid = O=C(O)CCCCCCCCCCCCCCCCC(=O)*; γGlu = O=C(O)[C@H](CCC(=O)[*:2])N[*:1]; Isovaleryl = CC(C)CC(=O)*; Ahx = NCCCCCC(=O)O
How the values were obtained:
[1] = target: T1, human NPY5 receptor (hY5R) (Homo sapiens, UniProt Q15761); experiment: HTRF cAMP Gi assay, hY5R
T1 sequence (Q15761 1-445): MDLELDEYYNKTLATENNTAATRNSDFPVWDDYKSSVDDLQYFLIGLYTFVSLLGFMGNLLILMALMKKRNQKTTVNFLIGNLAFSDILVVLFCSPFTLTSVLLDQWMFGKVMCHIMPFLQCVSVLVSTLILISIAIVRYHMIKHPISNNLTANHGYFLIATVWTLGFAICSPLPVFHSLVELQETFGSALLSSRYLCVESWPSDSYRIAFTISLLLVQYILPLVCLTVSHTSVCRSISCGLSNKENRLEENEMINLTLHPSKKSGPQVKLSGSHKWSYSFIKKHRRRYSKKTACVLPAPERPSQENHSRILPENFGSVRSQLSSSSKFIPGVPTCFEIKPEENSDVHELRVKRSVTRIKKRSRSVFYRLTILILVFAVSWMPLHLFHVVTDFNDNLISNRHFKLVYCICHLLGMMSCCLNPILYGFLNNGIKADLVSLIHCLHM

[2] = target: T2, Human Neuropeptide Y2 Receptor (Homo sapiens, UniProt P49146); experiment: Radioligand binding competition assay (RLB); conditions: Table 3, 125I-PYY(1-36) competition; read-out: Ki
T2 construct: purchased CHEMICON HTS066M
T2 sequence (P49146 1-381): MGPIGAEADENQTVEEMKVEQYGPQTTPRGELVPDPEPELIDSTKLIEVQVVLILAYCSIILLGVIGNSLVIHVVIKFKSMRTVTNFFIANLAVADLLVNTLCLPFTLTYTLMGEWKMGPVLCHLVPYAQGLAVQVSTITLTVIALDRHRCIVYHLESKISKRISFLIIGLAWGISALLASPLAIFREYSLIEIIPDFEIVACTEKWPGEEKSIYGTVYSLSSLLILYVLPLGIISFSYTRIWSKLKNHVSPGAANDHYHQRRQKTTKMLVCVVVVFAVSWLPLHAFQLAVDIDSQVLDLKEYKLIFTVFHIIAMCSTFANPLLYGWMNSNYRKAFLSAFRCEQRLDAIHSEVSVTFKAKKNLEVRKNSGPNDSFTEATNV
Procedure, shortened: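 Filtration competition binding on membranes from cells expressing the receptor, 0.5 μg protein/well, in 50 mM HEPES, 5 mM MgCl2, 1 mM CaCl2, pH 7.4, with 0.2% ovalbumin. Incubation ran 2 h at room temperature, followed by GF/C filtration and scintillation counting. IC50 came from nonlinear sigmoidal fits.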

[3] = Solubility determination; conditions: for Sol6: pH 6; for Sol7: pH 7
Procedure, shortened: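 Sample: TFA-salt peptide at 10 mg/ml target in 0.1 M Na diphosphate, pH 6.4 or 7.0, shaken 2 h RT, filtered, diluted to 1 mg/ml.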

Structure (SMILES) | pEC50 [1] | pKi [2] | Sol6 [3] [mg/mL] | Sol7 [3] [mg/mL]
CC[C@H](C)[C@H](NC(=O)[C@H](CCC(=O)O)NC(=O)[C@H](CCC(=O)O)NC(=O)[C@@H]1CCCN1C(=O)[C@H](CO)NC(=O)[C@H](C)NC(=O)[C@H](CC(=O)O)NC(=O)[C@H](CCC(=O)O)NC(=O)[C@H](CCC(=O)O)NC(=O)[C@@H]1CCCN1C(=O)[C@H](CCCCNC(=O)CCCCCNC(=O)CC[C@H](NC(=O)CCCCCCCCCCCCCCCCC(=O)O)C(=O)O)NC(=O)[C@H](CCC(=O)O)NC(=O)[C@@H]1CCCN1C(=O)[C@H](C)NC(=O)CC(C)C)C(=O)N[C@@H](CCC(N)=O)C(=O)N[C@@H](CCCNC(=N)N)C(=O)N[C@@H](Cc1ccc(O)cc1)C(=O)N[C@@H](Cc1ccc(O)cc1)C(=O)N[C@H](C(=O)N[C@@H](CO)C(=O)N[C@@H](CC(C)C)C(=O)N[C@@H](CCCNC(=N)N)C(=O)N[C@@H](Cc1c[nH]cn1)C(=O)N[C@@H](Cc1ccc(O)cc1)C(=O)N[C@@H](Cc1ccc(O)cc1)C(=O)N[C@@H](CC(N)=O)C(=O)N[C@@H](Cc1c[nH]c2ccccc12)C(=O)N[C@@H](CC(C)C)C(=O)N[C@H](C(=O)N[C@@H](CCCNC(=N)N)C(=O)N[C@@H](CCC(N)=O)C(=O)N[C@@H](CCCNC(=N)N)C(=O)N[C@@H](Cc1ccc(O)cc1)C(N)=O)[C@@H](C)O)C(C)C [Compound 147, N{alpha-4}-(3-methylbutanoyl)-N{epsilon-7}-(6-[(4S)-4-carboxy-4-(17-carboxyheptadecanamido)butanamido]hexanoyl)-[4A,7K,9E,17I,18Q,22V,28Y,30W,31L]-hPYY(4-36)] | < 5.30 | 8.30 | 9.4 | 9.2
CC[C@H](C)[C@H](NC(=O)[C@H](CCC(=O)O)NC(=O)[C@H](CCC(=O)O)NC(=O)[C@@H]1CCCN1C(=O)[C@H](CO)NC(=O)[C@H](C)NC(=O)[C@H](CC(=O)O)NC(=O)[C@H](CCC(=O)O)NC(=O)[C@H](CCC(=O)O)NC(=O)[C@@H]1CCCN1C(=O)[C@H](CCCCNC(=O)CCCCCNC(=O)CC[C@H](NC(=O)CCCCCCCCCCCCCCCCC(=O)O)C(=O)O)NC(=O)[C@H](CCC(=O)O)NC(=O)[C@@H]1CCCN1C(=O)[C@H](C)NC(=O)CC(C)C)C(=O)N[C@@H](CCC(N)=O)C(=O)N[C@@H](CCCNC(=N)N)C(=O)N[C@@H](Cc1ccc(O)cc1)C(=O)N[C@@H](Cc1ccc(O)cc1)C(=O)N[C@H](C(=O)N[C@@H](CCC(=O)O)C(=O)N[C@@H](CC(C)C)C(=O)N[C@@H](CCCNC(=N)N)C(=O)N[C@@H](Cc1c[nH]cn1)C(=O)N[C@@H](Cc1ccc(O)cc1)C(=O)N[C@@H](Cc1ccc(O)cc1)C(=O)N[C@@H](CC(N)=O)C(=O)N[C@@H](Cc1c[nH]c2ccccc12)C(=O)N[C@@H](CC(C)C)C(=O)N[C@H](C(=O)N[C@@H](CCCNC(=N)N)C(=O)N[C@@H](CCC(N)=O)C(=O)N[C@@H](CCCNC(=N)N)C(=O)N[C@@H](Cc1ccc(O)cc1)C(N)=O)[C@@H](C)O)C(C)C [Compound 52, N{alpha-4}-(3-methylbutanoyl)-N{epsilon-7}-(6-[(4S)-4-carboxy-4-(17-carboxyheptadecanamido)butanamido]hexanoyl)-[4A,7K,9E,17I,18Q,22V,23E,28Y,30W,31L]-hPYY(4-36)] | < 5.30 | 8.62 | 9.5 | 9.5
CC[C@H](C)[C@H](NC(=O)[C@H](CCC(=O)O)NC(=O)[C@H](CCC(=O)O)NC(=O)[C@@H]1CCCN1C(=O)[C@H](CO)NC(=O)[C@H](C)NC(=O)[C@H](CC(=O)O)NC(=O)[C@H](CCC(=O)O)NC(=O)[C@@H]1CCCN1C(=O)[C@@H]1CCCN1C(=O)[C@H](CCCCNC(=O)CCCCCNC(=O)CC[C@H](NC(=O)CCCCCCCCCCCCCCCCC(=O)O)C(=O)O)NC(=O)[C@H](CCC(=O)O)NC(=O)[C@@H]1CCCN1C(=O)[C@H](C)NC(=O)CC(C)C)C(=O)N[C@@H](CCC(N)=O)C(=O)N[C@@H](CCCNC(=N)N)C(=O)N[C@@H](Cc1ccc(O)cc1)C(=O)N[C@@H](Cc1ccc(O)cc1)C(=O)N[C@H](C(=O)N[C@@H](CO)C(=O)N[C@@H](CC(C)C)C(=O)N[C@@H](CCCNC(=N)N)C(=O)N[C@@H](Cc1c[nH]cn1)C(=O)N[C@@H](Cc1ccc(O)cc1)C(=O)N[C@@H](Cc1ccc(O)cc1)C(=O)N[C@@H](CC(N)=O)C(=O)N[C@@H](Cc1c[nH]c2ccccc12)C(=O)N[C@@H](CC(C)C)C(=O)N[C@H](C(=O)N[C@@H](CCCNC(=N)N)C(=O)N[C@@H](CCC(N)=O)C(=O)N[C@@H](CCCNC(=N)N)C(=O)N[C@@H](Cc1ccc(O)cc1)C(N)=O)[C@@H](C)O)C(C)C [Compound 172, N{alpha-4}-(3-methylbutanoyl)-N{epsilon-7}-(6-[(4S)-4-carboxy-4-(17-carboxyheptadecanamido)butanamido]hexanoyl)-[4A,7K,9P,17I,18Q,22V,28Y,30W,31L]-hPYY(4-36)] | < 5.30 | 9.09 | 10.0 | >10.0

The remaining lines, values ahead:

pEC50 [1] | pKi [2] | Sol6 [3] [mg/mL] | Sol7 [3] [mg/mL] | Structure (SMILES)
< 5.30 | 8.85 | 9.9 | 9.3 | CC[C@H](C)[C@H](NC(=O)[C@H](CCC(=O)O)NC(=O)[C@H](CCC(=O)O)NC(=O)[C@@H]1CCCN1C(=O)[C@H](CO)NC(=O)[C@H](C)NC(=O)[C@H](CC(=O)O)NC(=O)[C@H](C)NC(=O)[C@H](CCC(=O)O)NC(=O)[C@@H]1CCCN1C(=O)[C@H](CCCCNC(=O)CCCCCNC(=O)CC[C@H](NC(=O)CCCCCCCCCCCCCCCCC(=O)O)C(=O)O)NC(=O)[C@H](CCC(=O)O)NC(=O)[C@@H]1CCCN1C(=O)[C@H](C)NC(=O)CC(C)C)C(=O)N[C@@H](CCC(N)=O)C(=O)N[C@@H](CCCNC(=N)N)C(=O)N[C@@H](Cc1ccc(O)cc1)C(=O)N[C@@H](Cc1ccc(O)cc1)C(=O)N[C@H](C(=O)N[C@@H](CO)C(=O)N[C@@H](CC(C)C)C(=O)N[C@@H](CCCNC(=N)N)C(=O)N[C@@H](Cc1c[nH]cn1)C(=O)N[C@@H](Cc1ccc(O)cc1)C(=O)N[C@@H](Cc1ccc(O)cc1)C(=O)N[C@@H](CC(N)=O)C(=O)N[C@@H](Cc1c[nH]c2ccccc12)C(=O)N[C@@H](CC(C)C)C(=O)N[C@H](C(=O)N[C@@H](CCCNC(=N)N)C(=O)N[C@@H](CCC(N)=O)C(=O)N[C@@H](CCCNC(=N)N)C(=O)N[C@@H](Cc1ccc(O)cc1)C(N)=O)[C@@H](C)O)C(C)C [Compound 140, N{alpha-4}-(3-methylbutanoyl)-N{epsilon-7}-(6-[(4S)-4-carboxy-4-(17-carboxyheptadecanamido)butanamido]hexanoyl)-[4A,7K,9E,10A,17I,18Q,22V,28Y,30W,31L]-hPYY(4-36)]
≤ 5.30 | 8.33 | 8.9 | 9.4 | CC(C)CC(=O)N[C@@H](C)C(=O)N1CCC[C@H]1C(=O)N[C@@H](CCC(=O)O)C(=O)N[C@@H](CCCCNC(=O)CCCCCNC(=O)CC[C@H](NC(=O)CCCCCCCCCCCCCCCCC(=O)O)C(=O)O)C(=O)N1CCC[C@H]1C(=O)N[C@@H](CCC(=O)O)C(=O)N[C@@H](CCC(=O)O)C(=O)N[C@@H](CC(=O)O)C(=O)N[C@@H](C)C(=O)N[C@@H](CCC(=O)O)C(=O)N1CCC[C@H]1C(=O)N[C@@H](CCC(=O)O)C(=O)N[C@@H](CCC(=O)O)C(=O)N[C@@H](CC(C)C)C(=O)N[C@@H](CCC(N)=O)C(=O)N[C@@H](CCCNC(=N)N)C(=O)N[C@@H](Cc1ccc(O)cc1)C(=O)N[C@@H](Cc1ccc(O)cc1)C(=O)N[C@H](C(=O)N[C@@H](CO)C(=O)N[C@@H](CC(C)C)C(=O)N[C@@H](CCCNC(=N)N)C(=O)N[C@@H](Cc1c[nH]cn1)C(=O)N[C@@H](Cc1ccc(O)cc1)C(=O)N[C@@H](Cc1ccc(O)cc1)C(=O)N[C@@H](Cc1c[nH]cn1)C(=O)N[C@@H](Cc1c[nH]c2ccccc12)C(=O)N[C@@H](CC(C)C)C(=O)N[C@H](C(=O)N[C@@H](CCCNC(=N)N)C(=O)N[C@@H](CCC(N)=O)C(=O)N[C@@H](CCCNC(=N)N)C(=O)N[C@@H](Cc1ccc(O)cc1)C(N)=O)[C@@H](C)O)[C@@H](C)O [Compound 91, N{alpha-4}-(3-methylbutanoyl)-N{epsilon-7}-(6-[(4S)-4-carboxy-4-(17-carboxyheptadecanamido)butanamido]hexanoyl)-[4A,7K,9E,13E,18Q,22T,28Y,29H,30W,31L]-hPYY(4-36)] (Isovaleryl-APEK([Ahx-γGlu-C18 diacid])PEEDAEPEELQRYYTSLRHYYHWLTRQRY-NH2)
